pIC50: −log10 of the molar value. A value given as a limit tells only on which side of the number the result lay.

The target of this assay is T1, hNK2 receptor (Homo sapiens, UniProt P21452).
T1 construct: host or cells: CHO cells
T1 sequence (P21452 1-398): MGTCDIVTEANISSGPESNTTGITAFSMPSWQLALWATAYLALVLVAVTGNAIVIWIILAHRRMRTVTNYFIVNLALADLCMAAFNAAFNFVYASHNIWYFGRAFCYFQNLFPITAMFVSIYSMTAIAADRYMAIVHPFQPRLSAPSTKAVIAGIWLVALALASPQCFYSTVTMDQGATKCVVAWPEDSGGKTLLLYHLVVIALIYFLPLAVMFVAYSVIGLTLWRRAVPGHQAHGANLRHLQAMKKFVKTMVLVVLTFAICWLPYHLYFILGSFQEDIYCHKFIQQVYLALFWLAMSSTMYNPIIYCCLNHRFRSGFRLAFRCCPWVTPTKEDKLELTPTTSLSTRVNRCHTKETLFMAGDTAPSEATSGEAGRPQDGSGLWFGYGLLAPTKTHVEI
The assay is described as follows: Radio-ligand ([125I]-NKA) receptor binding inhibitory activity using membrane fraction of hNK2 receptor-expressing CHO cell. Conditions: membrane fraction of hNK2 receptor-expressing CHO cells, 25° C., 30 min. The method, boiled down: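 Membranes from hNK2-expressing CHO cells (20 μg/mL suspension) incubated with test compound and [125I]-NKA ([…] solution as added) in Tris-HCl pH 7.4 with BSA, protease inhibitors, 3 mM MnCl2, 25 °C, 30 min. Bound radioactivity by GF/C filtration and scintillation; inhibition expressed relative to specific binding (total minus unlabeled-NKA non-specific).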
Molecule `O=C(NCCc1ccccc1)N[C@@H]1CCCC[C@@H]1C(=O)N1CC[C@@H]2[C@H](c3ccccc3)Nc3ccccc3[C@@H]21` [Example 146, N-(2-Phenylethyl)-N′-((1R,2S)-2-{[(3aR,4R,9bR)-4-phenyl-2,3,3a,4,5,9b-hexahydro-1H-pyrrolo[3,2-c]quinolin-1-yl]carbonyl}cyclohexyl)urea] showed a pIC50 of over 8.00.
Next, `N#Cc1ccc(NC(=O)N[C@@H]2CCCC[C@@H]2C(=O)N2CC[C@@H]3[C@H](c4ccccc4)Nc4ccccc4[C@@H]32)cc1` [Example 147, N-(4-Cyanophenyl)-N′-((1R,2S)-2-{[(3aR,4R,9bR)-4-phenyl-2,3,3a,4,5,9b-hexahydro-1H-pyrrolo[3,2-c]quinolin-1-yl]carbonyl}cyclohexyl)urea]: over 8.00; `O=C(Nc1ccc2c(c1)OCO2)N[C@@H]1CCCC[C@@H]1C(=O)N1CC[C@@H]2[C@H](c3ccccc3)Nc3ccccc3[C@@H]21` [Example 148, N-1,3-Benzodioxol-5-yl-N′-((1R,2S)-2-{[(3aR,4R,9bR)-4-phenyl-2,3,3a,4,5,9b-hexahydro-1H-pyrrolo[3,2-c]quinolin-1-yl]carbonyl}cyclohexyl)urea]: over 9.00.
The value for `O=C(NC1CCCCC1)N[C@@H]1CCCC[C@@H]1C(=O)N1CC[C@@H]2[C@H](c3ccccc3)Nc3ccccc3[C@@H]21` [Example 149, N-Cyclohexyl-N′-((1R,2S)-2-{[(3aR,4R,9bR)-4-phenyl-2,3,3a,4,5,9b-hexahydro-1H-pyrrolo[3,2-c]quinolin-1-yl]carbonyl}cyclohexyl)urea] was over 8.00; that for `CC(C)c1ccc(NC(=O)N[C@@H]2CCCC[C@@H]2C(=O)N2CC[C@@H]3[C@H](c4ccccc4)Nc4ccccc4[C@@H]32)cc1` [Example 150, N-(4-Isopropylphenyl)-N′-((1R,2S)-2-{[(3aR,4R,9bR)-4-phenyl-2,3,3a,4,5,9b-hexahydro-1H-pyrrolo[3,2-c]quinolin-1-yl]carbonyl}cyclohexyl)urea] was over 8.00; that for `CCNC(=O)N[C@@H]1CCCC[C@@H]1C(=O)N1CC[C@@H]2[C@H](c3ccccc3)Nc3ccccc3[C@@H]21` [Example 151, N-Ethyl-N′-((1R,2S)-2-{[(3aR,4R,9bR)-4-phenyl-2,3,3a,4,5,9b-hexahydro-1H-pyrrolo[3,2-c]quinolin-1-yl]carbonyl}cyclohexyl)urea] was over 8.00.
The molecule `CC(C)NC(=O)N[C@@H]1CCCC[C@@H]1C(=O)N1CC[C@@H]2[C@H](c3ccccc3)Nc3ccccc3[C@@H]21` [Example 152, N-Isopropyl-N′-((1R,2S)-2-{[(3aR,4R,9bR)-4-phenyl-2,3,3a,4,5,9b-hexahydro-1H-pyrrolo[3,2-c]quinolin-1-yl]carbonyl}cyclohexyl)urea] had a negative-log IC50 (pIC50) of over 8.00.
In turn, `CCCCNC(=O)N[C@@H]1CCCC[C@@H]1C(=O)N1CC[C@@H]2[C@H](c3ccccc3)Nc3ccccc3[C@@H]21` [Example 153, N-Butyl-N′-((1R,2S)-2-{[(3aR,4R,9bR)-4-phenyl-2,3,3a,4,5,9b-hexahydro-1H-pyrrolo[3,2-c]quinolin-1-yl]carbonyl}cyclohexyl)urea] showed a negative logarithm of the IC50 (pIC50) of over 9.00.
For the molecule `CCCCCCNC(=O)N[C@@H]1CCCC[C@@H]1C(=O)N1CC[C@@H]2[C@H](c3ccccc3)Nc3ccccc3[C@@H]21` [Example 154, N-Hexyl-N′-((1R,2S)-2-{[(3aR,4R,9bR)-4-phenyl-2,3,3a,4,5,9b-hexahydro-1H-pyrrolo[3,2-c]quinolin-1-yl]carbonyl}cyclohexyl)urea], the negative logarithm of the IC50 (pIC50) is over 9.00.
Next, `CCOC(=O)CCNC(=O)N[C@@H]1CCCC[C@@H]1C(=O)N1CC[C@@H]2[C@H](c3ccccc3)Nc3ccccc3[C@@H]21` [Example 155, Ethyl N-{[((1R,2S)-2-{[(3aR,4R,9bR)-4-phenyl-2,3,3a,4,5,9b-hexahydro-1H-pyrrolo[3,2-c]quinolin-1-yl]carbonyl}cyclohexyl)amino]carbonyl}-beta-alaninate]: over 8.00; `O=C(NCCCO)N[C@@H]1CCCC[C@@H]1C(=O)N1CC[C@@H]2[C@H](c3ccccc3)Nc3ccccc3[C@@H]21` [Example 156, N-(3-Hydroxypropyl)-N′-((1R,2S)-2-{[(3aR,4R,9bR)-4-phenyl-2,3,3a,4,5,9b-hexahydro-1H-pyrrolo[3,2-c]quinolin-1-yl]carbonyl}cyclohexyl)urea]: over 8.00; `CCOC(=O)c1ccc(NC(=O)N[C@@H]2CCCC[C@@H]2C(=O)N2CC[C@@H]3[C@H](c4ccccc4)Nc4ccccc4[C@@H]32)cc1` [Example 159, Ethyl 4-({[((1R,25)-2-{[(3aR,4R,9bR)-4-phenyl-2,3,3a,4,5,9b-hexahydro-1H-pyrrolo[3,2-c]quinolin-1-yl]carbonyl}cyclohexyl)amino]carbonyl}amino)benzoate]: over 8.00.
Molecule `NC(=O)c1ccc(NC(=O)N[C@@H]2CCCC[C@@H]2C(=O)N2CC[C@@H]3[C@H](c4ccccc4)Nc4ccccc4[C@@H]32)cc1` [Example 160, 4-({[((1R,25)-2-{[(3aR,4R,9bR)-4-Phenyl-2,3,3a,4,5,9b-hexahydro-1H-pyrrolo[3,2-c]quinolin-1-yl]carbonyl}cyclohexyl)amino]carbonyl}amino)benzamide] gave a pIC50 of over 9.00.
Consider `COCCCNC(=O)N[C@@H]1CCCC[C@@H]1C(=O)N1CC[C@@H]2[C@H](c3ccccc3)Nc3ccccc3[C@@H]21` [Example 161, N-(3-Methoxypropyl)-N′-((1R,2S)-2-{[(3aR,4R,9bR)-4-phenyl-2,3,3a,4,5,9b-hexahydro-1H-pyrrolo[3,2-c]quinolin-1-yl]carbonyl}cyclohexyl)urea], for which the negative logarithm of the IC50 (pIC50) was over 8.00.
The molecule `CCOCCNC(=O)N[C@@H]1CCCC[C@@H]1C(=O)N1CC[C@@H]2[C@H](c3ccccc3)Nc3ccccc3[C@@H]21` [Example 162, N-(2-Ethoxyethyl)-N′-((1R,2S)-2-{[(3aR,4R,9bR)-4-phenyl-2,3,3a,4,5,9b-hexahydro-1H-pyrrolo[3,2-c]quinolin-1-yl]carbonyl}cyclohexyl)urea] showed a pIC50 of over 8.00.
For `O=C(NCCc1ccccn1)N[C@@H]1CCCC[C@@H]1C(=O)N1CC[C@@H]2[C@H](c3ccccc3)Nc3ccccc3[C@@H]21` [Example 164, N-((1R,2S)-2-{[(3aR,4R,9bR)-4-Phenyl-2,3,3a,4,5,9b-hexahydro-1H-pyrrolo[3,2-c]quinolin-1-yl]carbonyl}cyclohexyl)-N′-(2-pyridin-2-ylethyl)urea], the negative-log IC50 (pIC50) was over 9.00.
Next, `CC(C)CCNC(=O)N[C@@H]1CCCC[C@@H]1C(=O)N1CC[C@@H]2[C@H](c3ccccc3)Nc3ccccc3[C@@H]21` [Example 166, N-(3-Methylbutyl)-N′-((1R,2S)-2-{[(3aR,4R,9bR)-4-phenyl-2,3,3a,4,5,9b-hexahydro-1H-pyrrolo[3,2-c]quinolin-1-yl]carbonyl}cyclohexyl)urea]: over 9.00.
Turning to `O=C(NCCCN1CCCC1=O)N[C@@H]1CCCC[C@@H]1C(=O)N1CC[C@@H]2[C@H](c3ccccc3)Nc3ccccc3[C@@H]21` [Example 168, N-[3-(2-oxopyrrolidin-1-yl)propyl]-N′-((1R,2S)-2-{[(3aR,4R,9bR)-4-phenyl-2,3,3a,4,5,9b-hexahydro-1H-pyrrolo[3,2-c]quinolin-1-yl]carbonyl}cyclohexyl)urea], the pIC50 is over 8.00.
Next, `O=C(Nc1ccccn1)N[C@@H]1CCCC[C@@H]1C(=O)N1CC[C@@H]2[C@H](c3ccccc3)Nc3ccccc3[C@@H]21` [Example 170, N-((1R,2S)-2-{[(3aR,4R,9bR)-4-Phenyl-2,3,3a,4,5,9b-hexahydro-1H-pyrrolo[3,2-c]quinolin-1-yl]carbonyl}cyclohexyl)-N′-pyridin-2-ylurea]: over 8.00.
Molecule `O=C(Nc1cccnc1)N[C@@H]1CCCC[C@@H]1C(=O)N1CC[C@@H]2[C@H](c3ccccc3)Nc3ccccc3[C@@H]21` [Example 171, N-((1R,2S)-2-{[(3aR,4R,9bR)-4-Phenyl-2,3,3a,4,5,9b-hexahydro-1H-pyrrolo[3,2-c]quinolin-1-yl]carbonyl}cyclohexyl)-N′-pyridin-3-ylurea] gave a pIC50 of over 8.00.
Take `O=C(N[C@@H]1CCCC[C@@H]1C(=O)N1CC[C@@H]2[C@H](c3ccccc3)Nc3ccccc3[C@@H]21)N1CCC(c2ccccc2)CC1` [Example 172, 4-Phenyl-N-((1R,2S)-2-{[(3aR,4R,9bR)-4-phenyl-2,3,3a,4,5,9b-hexahydro-1H-pyrrolo[3,2-c]quinolin-1-yl]carbonyl}cyclohexyl)piperidine-1-carboxamide]: the pIC50 is over 8.00.
`O=C(NCC(F)(F)F)N[C@@H]1CCCC[C@@H]1C(=O)N1CC[C@@H]2[C@H](c3ccccc3)Nc3ccccc3[C@@H]21` [Example 173, N-((1R,2S)-2-{[(3aR,4R,9bR)-4-Phenyl-2,3,3a,4,5,9b-hexahydro-1H-pyrrolo[3,2-c]quinolin-1-yl]carbonyl}cyclohexyl)-N′-(2,2,2-trifluoroethyl)urea] showed a negative-log IC50 (pIC50) of over 8.00.
Molecule `CC(=O)N1CCC(NC(=O)N[C@@H]2CCCC[C@@H]2C(=O)N2CC[C@@H]3[C@H](c4ccccc4)Nc4ccccc4[C@@H]32)CC1` [Example 175, N-(1-Acetylpiperidin-4-yl)-N′-((1R,2S)-2-{[(3aR,4R,9bR)-4-phenyl-2,3,3a,4,5,9b-hexahydro-1H-pyrrolo[3,2-c]quinolin-1-yl]carbonyl}cyclohexyl)urea] had a negative logarithm of the IC50 (pIC50) of over 8.00.

For the origin of these results see patent US7943770B2, “Fused quinoline derivative and use thereof” (Takeda Pharmaceutical Company Limited, priority 2004, dated 2011).
